# In patent publication US20260199484A1, “PROTAC DEGRADERS OF MLLT1 AND/OR MLLT3” (DARK BLUE THERAPEUTICS LTD, priority 2024, published 2026):
# Assays:
# [1] = system: MV4-11 cells; experiment: MV4-11 cellular proliferative assay, Assay Format A (CellTiter-Glo, 120 h); type: cell-based; conditions: Homo sapiens, Assay format A, 120 h, read-out: IC50 (MV4-11 cellular proliferative assay)
# Outline: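 MV4-11 cells seeded at 50 cells/well and exposed for 120 h to compound (10 semi-log dilutions, top 30 μM) or DMSO. Viability by CellTiter-Glo luminescence, normalised to DMSO and reference-compound wells; AC50 from Hill fit.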
# [2] = target: T1, MLLT1 (Homo sapiens, UniProt Q03111); experiment: MLLT1 DC50 and Dmax determination in MV4-11 cells (JESS, 4 h); type: cell-based; parameters: endogenous in cells; host or cells: MV4-11 (ATCC CRL-9591); conditions: MLLT1 degradation
# T1 sequence (Q03111 1-559): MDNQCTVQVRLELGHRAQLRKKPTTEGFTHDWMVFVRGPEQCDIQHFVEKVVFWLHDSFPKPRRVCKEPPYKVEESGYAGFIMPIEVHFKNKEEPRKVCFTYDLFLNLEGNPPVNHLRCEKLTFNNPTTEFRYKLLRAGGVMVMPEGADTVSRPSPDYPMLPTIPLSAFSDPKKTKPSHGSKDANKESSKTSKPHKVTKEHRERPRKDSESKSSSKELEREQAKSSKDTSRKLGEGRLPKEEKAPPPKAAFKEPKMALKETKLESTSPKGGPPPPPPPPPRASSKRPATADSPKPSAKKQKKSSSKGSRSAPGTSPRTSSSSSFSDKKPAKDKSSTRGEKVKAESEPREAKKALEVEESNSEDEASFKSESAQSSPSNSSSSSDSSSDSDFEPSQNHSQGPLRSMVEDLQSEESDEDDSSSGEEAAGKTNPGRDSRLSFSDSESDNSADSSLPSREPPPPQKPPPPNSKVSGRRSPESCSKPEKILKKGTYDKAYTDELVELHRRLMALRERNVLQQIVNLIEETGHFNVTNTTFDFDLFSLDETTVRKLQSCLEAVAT
# Protocol: MLLT1 degradation efficacy of compounds was tested in an automated chemiluminescent detection system (JESS, Cat #004-650). MV4-11 (#CRL-9591, ATCC) were seeded at a density of 1.2 million cells/well in a non-treated 6-well cell culture plate in 2.4 mL of complete medium (IMDM+10% FBS+1× Penicillin-Streptomycin). 10 mM DMSO stocks were prepared, and cells were treated with eight concentrations of test compounds, starting from 100 nM, 5-fold dilution, at a final DMSO concentration of 0.1% and incubated for 4 h at 37° C., 5% CO2. Post incubation, cells were centrifuged, washed with HBSS and lysed in 60 μL of RIPA buffer supplemented with Protease inhibitors (sc-24948; Santa Cruz). Protein estimation was done using BCA protein assay kit (23228; Pierce). 4 gg protein lysate (4 μL of 1 μg/μL lysate) was loaded into each well of the JESS cartridge (SM-W004; Bio-techne) and the JESS run was performed using 1:900 dilution of anti-human MLLT1 antibody (ABE2596; Merck) and 1:1200 dilution of anti-human GAPDH antibody (2118; Cell signaling technology) with anti-rabbit secondary detection module (DM-001; Bio-Techne). Post run, data was analysed using “Compass for SW” software for chemiluminescent detection. Peak fit was done using “dropped lines” method. Peak area for MLLT1 and GAPDH was used for the calculation of MLLT1 degradation with respect to DMSO control. Data was shown as “% degradation”. % Degradation was plotted against the respective doses (test compound concentration) and dose-response curve (DRC) was generated using four-parameter logistic equation (non-linear regression). Following parameters for each DRC was captured: DC50 (concentration in nM at which degradation is 50%, interpolated from standard curve and transformed to linear scale), Dmax (maximum % degradation observed). DC50 and Dmax data are captured in Table 7 for Example 1 and Example 110, which is a comparative example.
structure (smiles),measurement,setting,value
"Cc1nn(CCCCCCCC#Cc2cccc3c2CN(C2CCC(=O)NC2=O)C3=O)c2cc(C(=O)Nc3cc4[nH]c([C@H]5CCCN5C)cc4cn3)ccc12 (mixture of isomers) [Example 1, 1-(9-(2-(2,6-dioxopiperidin-3-yl)-1-oxoisoindolin-4-yl)non-8-yn-1-yl)-3-methyl-N-(2-((R)-1-methylpyrrolidin-2-yl)-1H-pyrrolo[3,2-c]pyridin-6-yl)-1H-indazole-6-carboxamide]",IC50,[1],< 100 nM
same,DC50,[2],0.5 nM
same,Dmax,[2]; maximum % degradation observed,87%
